Reference: patent US5616573A, “Glucocorticoids” (Schering Aktiengesellschaft, priority 1993, dated 1997)
*1 amine or outer side, *2 acyl side, *3 side chain or, on linkers, in order; H or OH if unused. Where a SMILES comes first, the peptide text is derived from it. [ ]: non-standard residue; d: D form. The star is where a group is joined. Methylprednisolone(17-OCOEt) = CCC(=O)O[C@]1(C(=O)CO*)CC[C@H]2[C@@H]3C[C@H](C)C4=CC(=O)C=C[C@]4(C)[C@H]3[C@@H](O)C[C@@]21C; Phthalimidoacetyl = O=C1c2ccccc2C(=O)N1CC(=O)*; Diphenylacetyl = O=C(C(c1ccccc1)c1ccccc1)*; Fmoc = O=C(OCC1c2ccccc2-c2ccccc21)*; 2Naphthoyl = O=C(c1ccc2ccccc2c1)*; X6 = O=C(CCn1c2ccccc2c2ccccc21)*; X7 = O=S(=O)(c1ccc(Cl)cc1)*; X8 = c1ccc(N(c2ccccc2)*)cc1; MeOSuc = COC(=O)CCC(=O)*; Cbz = O=C(OCc1ccccc1)*; X4 = O=C(C=Cc1ccccc1)*; Aib = CC(C)(N)C(=O)O; CO = O=C([*:1])[*:2]; CH2Cl = ClC*

What was measured:
rat ear = assay: Local antiinflammatory action: modified rat ear test according to Tonelli (croton oil); type: in vivo; details: topical, * = significant (p < 0.05); for Edema [% inhibition]: ear weight, 16 hours after irritant; for Infiltration [% inhibition]: granulocytic infiltrate (myeloperoxidase and leukocyte-elastase), 16 hours
Method: The antiinflammatory activity of the corticoid-21-oligopeptide esters is performed in a modified rat ear test according to Tonelli. The modifications are based on changes of irritant solution (4% croton oil, 10% DMSO in ethanol), the type of administration (application of the solution with pipette) and the evaluation of the test 16 hours after administration of the irritant solution. At this time, both the inhibition of the edema by measuring the ear weight and the inhibition of the granulocytic infiltrate by measuring the granulocyte marker myeloperoxidase and leukocyte-elastase in the ear homogenate can be determined. The group size was 6 animals in each case.

Esterases of Rat Skin = assay: Cleavage in the Homogenate of Normal Rat Skin (unspecific cleavage by esterases of rat skin); type: in vitro ADME; details: percent of hydrolysis rate of 6α-methylprednisolone-17-propionate-21-acetate; approximately 100 μmol/l, pH=7.4, 37° C.
Method: (§1) The homogenate of the skin of male rats (0.1 mol/l of phosphate buffer, pH=7.4) is centrifuged for 20 minutes at 10,000 g. The supernatant is adjusted in phosphate buffer to a protein concentration of 3 mg/ml. The test substances in 20 μl of ethanol are added to 1 ml of this homogenate. The final concentration of the corticoid derivatives is approximately 100 μmol/l. The incubation takes place for different periods at 37° C. At the end of incubation, the samples are extracted three times with 3 ml of chloroform. The combined extracts are evaporated to dryness under nitrogen and taken up with 100 μl of ethanol. The ethanolic solutions are mixed with the same volume of water and the saponification products are separated by HPLC (RP 18, acetonitrile/water-gradient, detection 240 nm). The relative hydrolysis rate is indicated in percent of the hydrolysis rate of the 6α-methylprednisolone-17-propionate-21-acetate.

Leukocyte Elastase = biological target: T1, Leukocyte Elastase (Homo sapiens, UniProt P08246); assay: Cleavage of Glucocorticoid-21-Oligopeptide Esters by Leukocyte Elastase in the lysate of human neutrophilic granulocytes; type: biochemical; details: for Relative Hydrolysis Rate [%]: lysate of human neutrophilic granulocytes, 10^6 cells per ml, 1 hour at 37° C., Fmoc-Ala-Ala-Pro-Val-O-MPP is used as reference
T1 construct: also pure human sputum elastase (Elastin Products)
T1 sequence (P08246 30-267): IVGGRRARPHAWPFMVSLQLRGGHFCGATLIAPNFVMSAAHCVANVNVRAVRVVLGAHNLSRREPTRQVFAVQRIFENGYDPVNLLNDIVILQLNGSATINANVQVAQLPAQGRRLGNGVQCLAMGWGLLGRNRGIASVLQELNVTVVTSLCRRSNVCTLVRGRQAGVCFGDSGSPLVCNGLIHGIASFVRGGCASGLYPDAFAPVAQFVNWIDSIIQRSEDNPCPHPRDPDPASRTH
Method: as §1
Polymorphonuclear granulocytes are isolated from donor blood. The cells are lysed in a density of 10^6 cells per ml. 1 ml each of the lysate is mixed with 20 μl of ethanolic corticoid solution (5 mmol/l) After 1 hour of incubation at 37° C., the samples are extracted three times with 3 ml of chloroform and worked up as described above for HPLC analysis. The cleavage of the prodrugs according to the invention can be inhibited under these test conditions by the addition of the specific elastase inhibitor MeO-succinyl-Ala-Ala-Pro-Val-chloromethylketone to 90%. Furthermore, the compounds are also hydrolyzed by pure human sputum-elastase (elastin products).

[1] = concentration 0.003 (unit not given)
[2] = concentration 0.03 (unit not given)
[3] = concentration 0.3 (unit not given)

| SMILES | Relative Hydrolysis Rate [%] (Esterases of Rat Skin) | also measured |
| --- | --- | --- |
| CCC(=O)O[C@]1(C(=O)COC(C)=O)CC[C@H]2[C@@H]3C[C@H](C)C4=CC(=O)C=C[C@]4(C)[C@H]3[C@@H](O)C[C@@]21C [6α-methylprednisolone-17-propionate-21-acetate, reference compound] | 100 | Edema [% inhibition] (rat ear; [1]): 44%; Infiltration [% inhibition] (rat ear; [1]): 12%; Edema [% inhibition] (rat ear; [2]): 62%; Infiltration [% inhibition] (rat ear; [2]): 45%; Edema [% inhibition] (rat ear; [3]): 67%; Infiltration [% inhibition] (rat ear; [3]): 78% |
| CCC(=O)O[C@]1(C(=O)COC(=O)[C@@H](NC(=O)[C@@H]2CCCN2C(=O)[C@H](C)NC(=O)[C@H](C)NC(=O)N(c2ccccc2)c2ccccc2)C(C)C)CC[C@H]2[C@@H]3C[C@H](C)C4=CC(=O)C=C[C@]4(C)[C@H]3[C@@H](O)C[C@@]21C [Example 11, N-(N-(N-(N-(Diphenylcarbamoyl)-L-alanyl)-L-alanyl)-L-prolyl)-L-valine [11β,21-dihydroxy-3,20-dioxo-6α-methyl-17-propionyloxy-pregna-1,4-dien-21-yl] ester] ({X8-CO}-AAPV-{Methylprednisolone(17-OCOEt)}) | 14 | – |
| CCC(=O)O[C@]1(C(=O)COC(=O)[C@@H](NC(=O)[C@@H]2CCCN2C(=O)[C@H](C)NC(=O)[C@H](C)NC(=O)CN2C(=O)c3ccccc3C2=O)C(C)C)CC[C@H]2[C@@H]3C[C@H](C)C4=CC(=O)C=C[C@]4(C)[C@H]3[C@@H](O)C[C@@]21C [Example 17, N-(N-(N-(N-(N-(Phthaloyl)-glycyl)-L-alanyl)-L-alanyl)-L-prolyl) -L-valine [11β,21-dihydroxy-3,20-dioxo-6α-methyl-17-propionyloxy-pregna-1,4-dien-21-yl] ester] (Phthalimidoacetyl-AAPV-{Methylprednisolone(17-OCOEt)}) | 49 | – |
| CCC(=O)O[C@]1(C(=O)COC(=O)[C@@H](NC(=O)[C@@H]2CCCN2C(=O)[C@H](C)NC(=O)[C@H](C)NC(=O)c2ccc3ccccc3c2)C(C)C)CC[C@H]2[C@@H]3C[C@H](C)C4=CC(=O)C=C[C@]4(C)[C@H]3[C@@H](O)C[C@@]21C [Example 12, N-(N-(N-(N-(2-Naphthoyl)-L-alanyl)-L-alanyl)-L-prolyl)-L-valine [11β,21-dihydroxy-3,20-dioxo-6α-methyl-17-propionyloxy-pregna-1,4-dien-21-yl] ester] (2Naphthoyl-AAPV-{Methylprednisolone(17-OCOEt)}) | 4 | – |
| CCC(=O)O[C@]1(C(=O)COC(=O)[C@@H](NC(=O)[C@@H]2CCCN2C(=O)[C@H](C)NC(=O)[C@H](C)NS(=O)(=O)c2ccc(Cl)cc2)C(C)C)CC[C@H]2[C@@H]3C[C@H](C)C4=CC(=O)C=C[C@]4(C)[C@H]3[C@@H](O)C[C@@]21C [Example 14, N-(N-(N-(N-(4-Chlorobenzenesulfonyl)-L-alanyl)-L-alanyl)-L -prolyl)-L-valine [11β,21-dihydroxy-3,20-dioxo-6α-methyl-17-propionyloxy-pregna-1,4-dien-21-yl] ester] (X7-AAPV-{Methylprednisolone(17-OCOEt)}) | 6 | – |
| COC(=O)CCC(=O)N[C@@H](C)C(=O)N[C@@H](C)C(=O)N1CCC[C@H]1C(=O)N[C@H](C(=O)CCl)C(C)C [MeO-succinyl-Ala-Ala-Pro-Val-chloromethylketone, reference compound] (MeOSuc-AAPV-CH2Cl) | – | Inhibition of the cleavage of the prodrugs (Leukocyte Elastase; addition of the specific elastase inhibitor to granulocyte lysate): 90% |
| CCC(=O)O[C@]1(C(=O)COC(=O)[C@@H](NC(=O)[C@@H]2CCCN2C(=O)[C@H](C)NC(=O)[C@H](C)NC(=O)C(C)(C)NC(=O)OCC2c3ccccc3-c3ccccc32)C(C)C)CC[C@H]2[C@@H]3C[C@H](C)C4=CC(=O)C=C[C@]4(C)[C@H]3[C@@H](O)C[C@@]21C [Example 18, N-(N-(N-(N-(N-((9H-Fluoren-9-ylmethoxy)carbonyl)-2-amino-2-methyl-propionyl)-L-alanyl)-L-alanyl)-L-prolyl)-L-valine [11β,21-dihydroxy-3,20-dioxo-6α-methyl-17-propionyloxy-pregna-1,4-dien-21-yl] ester] (Fmoc-[Aib]AAPV-{Methylprednisolone(17-OCOEt)}) | – | Relative Hydrolysis Rate [%] (Leukocyte Elastase): 130% |
| CCCCC(=O)O[C@]1(C(=O)COC(=O)[C@@H](NC(=O)[C@@H]2CCCN2C(=O)[C@H](C)NC(=O)[C@H](C)NC(=O)OC(C)(C)C)C(C)C)[C@@H](C)C[C@H]2[C@@H]3CCC4=CC(=O)C=C[C@]4(C)[C@@]3(F)[C@@H](O)C[C@@]21C [Example 38, N-(N-(N-(N-((1,1-Dimethyl)ethoxycarbonyl)-L-alanyl)-L-alanyl)-L -prolyl)-L-valine [9α-fluoro-11β,21-dihydroxy-16β-methyl-3,20-dioxo-17-valeroyloxy-pregna-1,4-dien-21-yl] ester] | 0 | – |
| CCC(=O)O[C@]1(C(=O)COC(=O)[C@@H](NC(=O)[C@@H]2CCCN2C(=O)[C@H](C)NC(=O)[C@H](C)NC(=O)CCn2c3ccccc3c3ccccc32)C(C)C)CC[C@H]2[C@@H]3C[C@H](C)C4=CC(=O)C=C[C@]4(C)[C@H]3[C@@H](O)C[C@@]21C [Example 16, N-(N-(N-(N-(3-(Carbazol-9-yl)-propionyl)-L-alanyl)-L-alanyl)-L -prolyl)-L-valine [11β,21-dihydroxy-3,20-dioxo-6α-methyl-17-propionyloxy-pregna-1,4-dien-21-yl] ester] (X6-AAPV-{Methylprednisolone(17-OCOEt)}) | 3 | – |
| CCC(=O)O[C@]1(C(=O)COC(=O)[C@@H](NC(=O)[C@@H]2CCCN2C(=O)[C@H](C)NC(=O)[C@H](C)NC(=O)C=Cc2ccccc2)C(C)C)CC[C@H]2[C@@H]3C[C@H](C)C4=CC(=O)C=C[C@]4(C)[C@H]3[C@@H](O)C[C@@]21C [Example 13] (X4-AAPV-{Methylprednisolone(17-OCOEt)}) | 5 | – |
| CCC(=O)O[C@]1(C(=O)COC(=O)[C@@H](NC(=O)[C@@H]2CCCN2C(=O)[C@H](C)NC(=O)[C@H](C)NC(=O)C(c2ccccc2)c2ccccc2)C(C)C)CC[C@H]2[C@@H]3C[C@H](C)C4=CC(=O)C=C[C@]4(C)[C@H]3[C@@H](O)C[C@@]21C [Example 10, N-(N-(N-(N-((Diphenylmethyl)carbonyl)-L-alanyl)-L-alanyl)-L -prolyl)-L-valine [11β,21-dihydroxy-3,20-dioxo-6α-methyl-17-propionyloxy-pregna-1,4-dien-21-yl] ester] (Diphenylacetyl-AAPV-{Methylprednisolone(17-OCOEt)}) | 6 | – |
| CCC(=O)O[C@]1(C(=O)COC(=O)[C@@H](NC(=O)[C@@H]2CCCN2C(=O)[C@H](C)NC(=O)[C@H](C)NC(=O)OCc2ccccc2)C(C)C)CC[C@H]2[C@@H]3C[C@H](C)C4=CC(=O)C=C[C@]4(C)[C@H]3[C@@H](O)C[C@@]21C [Example 5, N-(N-(N-(N-(Phenylmethoxycarbonyl)-L-alanyl)-L-alanyl)-L-prolyl) -L-valine [11β21-dihydroxy-3,20-dioxo-6α-methyl-17-propionyloxy-pregna-1,4-dien-21-yl] ester] (Cbz-AAPV-{Methylprednisolone(17-OCOEt)}) | – | Relative Hydrolysis Rate [%] (Leukocyte Elastase): 160-230% |
